# Test results as given in article PMC6430112 (Xenobiotica; the fate of foreign compounds in biological …, 2018).
# “And” between values parts separate entries of the source, which are not always exact repeats. Identical values can stand only once.
# What was measured:
# CYP1A1 = target: T1, CYP1A1 (Homo sapiens, UniProt P04798); assay: Oxidation by purified CYP1A1 in reconstituted monooxygenase system, LC-MS/MS; format: in vitro ADME; conditions: substrate flavanone
# T1 sequence (P04798 1-512): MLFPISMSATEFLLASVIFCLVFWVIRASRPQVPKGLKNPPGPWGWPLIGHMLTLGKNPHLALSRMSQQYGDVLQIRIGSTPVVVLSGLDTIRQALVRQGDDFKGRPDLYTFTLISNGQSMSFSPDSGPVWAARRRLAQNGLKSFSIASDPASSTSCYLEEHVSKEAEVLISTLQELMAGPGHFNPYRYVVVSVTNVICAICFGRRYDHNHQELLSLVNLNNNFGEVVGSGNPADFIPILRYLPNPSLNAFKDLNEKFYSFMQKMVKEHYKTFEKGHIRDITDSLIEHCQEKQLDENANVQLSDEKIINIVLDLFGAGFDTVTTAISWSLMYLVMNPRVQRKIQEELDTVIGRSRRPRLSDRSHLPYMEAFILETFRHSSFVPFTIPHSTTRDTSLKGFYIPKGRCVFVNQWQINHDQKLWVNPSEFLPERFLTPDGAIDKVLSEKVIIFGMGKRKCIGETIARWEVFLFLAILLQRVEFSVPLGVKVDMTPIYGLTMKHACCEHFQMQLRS
# CYP2C9 = CYP2C9 (Homo sapiens, UniProt P11712); assay: Oxidation by purified CYP2C9 in reconstituted monooxygenase system, LC-MS/MS; format: in vitro ADME; conditions: substrate flavanone
# Chain of CYP2C9 (P11712 whole entry): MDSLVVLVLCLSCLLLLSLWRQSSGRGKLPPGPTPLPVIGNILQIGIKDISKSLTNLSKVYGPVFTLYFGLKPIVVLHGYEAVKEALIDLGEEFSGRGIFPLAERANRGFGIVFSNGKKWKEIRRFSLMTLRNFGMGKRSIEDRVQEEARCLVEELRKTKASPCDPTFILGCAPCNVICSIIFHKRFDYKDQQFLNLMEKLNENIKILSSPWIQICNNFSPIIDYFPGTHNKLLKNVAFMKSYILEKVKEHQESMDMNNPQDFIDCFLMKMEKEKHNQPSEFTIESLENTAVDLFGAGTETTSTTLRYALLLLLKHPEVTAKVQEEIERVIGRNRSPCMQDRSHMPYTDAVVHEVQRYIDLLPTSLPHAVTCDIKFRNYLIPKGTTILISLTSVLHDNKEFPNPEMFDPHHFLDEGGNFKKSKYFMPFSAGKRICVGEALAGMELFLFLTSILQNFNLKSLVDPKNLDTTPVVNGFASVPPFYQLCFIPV
# CYP3A4 = CYP3A4 (Homo sapiens, UniProt P08684); assay: Oxidation by purified CYP3A4 in reconstituted monooxygenase system, LC-MS/MS; format: in vitro ADME; conditions: substrate flavanone
# Chain of CYP3A4 (P08684 whole entry): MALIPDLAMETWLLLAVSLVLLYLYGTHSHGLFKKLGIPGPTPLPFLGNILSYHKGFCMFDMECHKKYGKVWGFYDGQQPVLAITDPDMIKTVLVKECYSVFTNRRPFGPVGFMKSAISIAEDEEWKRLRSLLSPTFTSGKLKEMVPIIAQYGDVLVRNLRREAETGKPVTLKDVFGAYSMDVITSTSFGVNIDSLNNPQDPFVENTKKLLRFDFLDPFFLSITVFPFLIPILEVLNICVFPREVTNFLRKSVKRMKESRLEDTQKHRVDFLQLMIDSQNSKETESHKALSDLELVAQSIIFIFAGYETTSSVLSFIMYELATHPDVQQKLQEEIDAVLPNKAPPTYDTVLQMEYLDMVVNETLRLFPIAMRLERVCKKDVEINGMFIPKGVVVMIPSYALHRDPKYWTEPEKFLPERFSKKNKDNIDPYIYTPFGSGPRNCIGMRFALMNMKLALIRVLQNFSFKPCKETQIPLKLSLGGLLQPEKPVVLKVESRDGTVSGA
# CYP1A2 = target: T2, CYP1A2 (Homo sapiens, UniProt P05177); assay: Oxidation by purified CYP1A2 in reconstituted monooxygenase system, LC-MS/MS; format: in vitro ADME; conditions: substrate flavanone
# T2 sequence (P05177 1-516): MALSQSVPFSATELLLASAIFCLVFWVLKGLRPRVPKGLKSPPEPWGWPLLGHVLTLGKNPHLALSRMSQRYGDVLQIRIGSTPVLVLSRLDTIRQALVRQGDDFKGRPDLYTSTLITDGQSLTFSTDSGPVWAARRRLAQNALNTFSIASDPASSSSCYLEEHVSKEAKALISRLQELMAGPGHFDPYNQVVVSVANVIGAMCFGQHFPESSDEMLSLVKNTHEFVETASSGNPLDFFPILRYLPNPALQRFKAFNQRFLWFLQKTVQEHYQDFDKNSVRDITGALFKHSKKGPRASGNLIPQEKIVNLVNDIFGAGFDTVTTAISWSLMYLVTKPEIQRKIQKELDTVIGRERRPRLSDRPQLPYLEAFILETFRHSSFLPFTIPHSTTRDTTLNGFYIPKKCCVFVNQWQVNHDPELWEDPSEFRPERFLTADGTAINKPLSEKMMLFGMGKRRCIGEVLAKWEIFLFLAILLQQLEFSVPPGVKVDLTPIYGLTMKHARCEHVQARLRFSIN
# wild-type CYP2A6 = conditions: substrate flavanone, ref Uno et al. (2013; 2015); cited from earlier work
# CYP2A13 = target: T3, CYP2A13 (Homo sapiens, UniProt Q16696); assay: Oxidation by purified CYP2A13 in reconstituted monooxygenase system, LC-MS/MS; format: in vitro ADME; conditions: substrate flavanone
# T3 sequence (Q16696 1-494): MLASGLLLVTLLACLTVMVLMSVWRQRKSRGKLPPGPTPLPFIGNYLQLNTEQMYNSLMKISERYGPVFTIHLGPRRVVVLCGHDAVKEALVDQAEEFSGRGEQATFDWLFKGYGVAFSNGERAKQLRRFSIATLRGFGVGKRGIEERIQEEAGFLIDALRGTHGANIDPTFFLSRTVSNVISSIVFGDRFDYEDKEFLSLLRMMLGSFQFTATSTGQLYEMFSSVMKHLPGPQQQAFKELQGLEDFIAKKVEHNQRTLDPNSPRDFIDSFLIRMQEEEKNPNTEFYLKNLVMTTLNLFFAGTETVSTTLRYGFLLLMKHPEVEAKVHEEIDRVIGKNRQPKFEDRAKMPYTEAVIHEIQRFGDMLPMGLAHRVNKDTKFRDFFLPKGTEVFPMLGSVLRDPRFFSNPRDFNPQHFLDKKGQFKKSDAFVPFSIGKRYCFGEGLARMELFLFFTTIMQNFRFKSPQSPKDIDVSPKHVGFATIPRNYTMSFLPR
# CYP1B1 = target: T4, CYP1B1 (Homo sapiens, UniProt Q16678); assay: Oxidation by purified CYP1B1 in reconstituted monooxygenase system, LC-MS/MS; format: in vitro ADME; conditions: substrate flavanone
# T4 sequence (Q16678 1-543): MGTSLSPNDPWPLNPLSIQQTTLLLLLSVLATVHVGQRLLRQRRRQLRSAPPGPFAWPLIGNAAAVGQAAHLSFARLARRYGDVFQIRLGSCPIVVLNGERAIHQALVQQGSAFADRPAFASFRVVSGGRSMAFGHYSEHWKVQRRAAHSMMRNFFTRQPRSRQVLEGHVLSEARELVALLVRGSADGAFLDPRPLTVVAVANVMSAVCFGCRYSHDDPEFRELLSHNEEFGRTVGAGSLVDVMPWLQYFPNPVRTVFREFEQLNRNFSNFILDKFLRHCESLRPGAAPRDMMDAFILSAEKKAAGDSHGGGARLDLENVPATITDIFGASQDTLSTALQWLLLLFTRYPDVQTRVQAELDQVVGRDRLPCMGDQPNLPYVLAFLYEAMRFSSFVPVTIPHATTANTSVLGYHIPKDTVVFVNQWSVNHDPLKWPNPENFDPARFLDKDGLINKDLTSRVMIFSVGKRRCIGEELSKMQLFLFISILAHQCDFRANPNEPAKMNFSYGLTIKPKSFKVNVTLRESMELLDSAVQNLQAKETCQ
# CYP2A6 = target: T5, CYP2A6 (Homo sapiens, UniProt P11509); assay: Oxidation by purified CYP2A6 in reconstituted monooxygenase system, LC-MS/MS; format: in vitro ADME; conditions: substrate flavanone
# T5 sequence (P11509 1-494): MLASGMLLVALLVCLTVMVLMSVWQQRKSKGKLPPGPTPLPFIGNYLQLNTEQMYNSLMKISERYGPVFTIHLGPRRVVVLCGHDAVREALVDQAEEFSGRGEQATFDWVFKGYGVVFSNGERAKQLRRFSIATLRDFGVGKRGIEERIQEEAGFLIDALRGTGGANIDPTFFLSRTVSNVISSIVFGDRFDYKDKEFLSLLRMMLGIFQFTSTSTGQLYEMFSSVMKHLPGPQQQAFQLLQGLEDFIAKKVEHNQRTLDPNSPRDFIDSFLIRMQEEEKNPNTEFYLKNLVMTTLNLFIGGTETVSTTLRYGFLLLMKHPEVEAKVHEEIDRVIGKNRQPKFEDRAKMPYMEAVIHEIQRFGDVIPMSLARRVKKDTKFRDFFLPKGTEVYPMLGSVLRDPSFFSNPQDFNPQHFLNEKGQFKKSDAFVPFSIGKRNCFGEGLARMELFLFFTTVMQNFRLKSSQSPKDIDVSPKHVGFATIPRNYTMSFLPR
# rat liver microsomes = conditions: ref Kagawa et al. (2004); cited from earlier work
compound,measurement,setting,value
O=C1CC(c2ccccc2)Oc2ccccc21 (stereo not drawn) [flavanone],Formation of flavone and hydroxylated products: 2´-OHFva,CYP1A1,0.008 ± 0.004 nmol/min/nmol P450
same,Formation of flavone and hydroxylated products: 3´-OHFva,CYP1A1,0.004 ± 0.002 nmol/min/nmol P450
same,Formation of flavone and hydroxylated products: 4’´-OHFva,CYP1A1,0.074 ± 0.002 nmol/min/nmol P450
same,Formation of flavone and hydroxylated products: 6OHF,CYP1A1,0.002 ± 0.001 nmol/min/nmol P450
same,Formation of flavone and hydroxylated products: 6OHFva,CYP1A1,0.058 ± 0.008 nmol/min/nmol P450
same,Formation of flavone and hydroxylated products: 7OHF,CYP1A1,<0.001 nmol/min/nmol P450
same,Formation of flavone and hydroxylated products: 7OHFva,CYP1A1,0.007 ± 0.003 nmol/min/nmol P450
same,Formation of flavone and hydroxylated products: Flavone,CYP1A1,0.053 ± 0.003 nmol/min/nmol P450
same,Formation of flavone and hydroxylated products: 2´-OHFva,CYP2C9,0.012 ± 0.001 nmol/min/nmol P450
same,Formation of flavone and hydroxylated products: 3´-OHFva,CYP2C9,0.003± 0.001 nmol/min/nmol P450
same,Formation of flavone and hydroxylated products: 4’´-OHFva,CYP2C9,0.040± 0.001 nmol/min/nmol P450
same,Formation of flavone and hydroxylated products: 6OHF,CYP2C9,<0.001 nmol/min/nmol P450
same,Formation of flavone and hydroxylated products: 6OHFva,CYP2C9,0.091± 0.001 nmol/min/nmol P450
same,Formation of flavone and hydroxylated products: 7OHF,CYP2C9,<0.001 nmol/min/nmol P450
same,Formation of flavone and hydroxylated products: 7OHFva,CYP2C9,<0.001 nmol/min/nmol P450
same,Formation of flavone and hydroxylated products: Flavone,CYP2C9,0.009 ± 0.002 nmol/min/nmol P450
same,Formation of flavone and hydroxylated products: 2´-OHFva,CYP3A4,<0.001 nmol/min/nmol P450
same,Formation of flavone and hydroxylated products: 3´-OHFva,CYP3A4,<0.001 nmol/min/nmol P450
same,Formation of flavone and hydroxylated products: 4’´-OHFva,CYP3A4,<0.001 nmol/min/nmol P450
same,Formation of flavone and hydroxylated products: 6OHF,CYP3A4,<0.001 nmol/min/nmol P450
same,Formation of flavone and hydroxylated products: 6OHFva,CYP3A4,<0.001 nmol/min/nmol P450
same,Formation of flavone and hydroxylated products: 7OHF,CYP3A4,<0.001 nmol/min/nmol P450
same,Formation of flavone and hydroxylated products: 7OHFva,CYP3A4,<0.001 nmol/min/nmol P450
same,Formation of flavone and hydroxylated products: Flavone,CYP3A4,0.057 ± 0.011 nmol/min/nmol P450
same,Formation of flavone and hydroxylated products: 2´-OHFva,CYP1A2,0.074 ± 0.012 nmol/min/nmol P450
same,Formation of flavone and hydroxylated products: 3´-OHFva,CYP1A2,0.117 ± 0.023 nmol/min/nmol P450
same,Formation of flavone and hydroxylated products: 4’´-OHFva,CYP1A2,0.33 ± 0.05 nmol/min/nmol P450
same,Formation of flavone and hydroxylated products: 6OHF,CYP1A2,<0.001 nmol/min/nmol P450
same,Formation of flavone and hydroxylated products: 6OHFva,CYP1A2,0.19 ± 0.02 nmol/min/nmol P450
same,Formation of flavone and hydroxylated products: 7OHF,CYP1A2,0.002 ± 0.002 nmol/min/nmol P450
same,Formation of flavone and hydroxylated products: 7OHFva,CYP1A2,0.009 ± 0.001 nmol/min/nmol P450
same,Formation of flavone and hydroxylated products: Flavone,CYP1A2,0.008 ± 0.001 nmol/min/nmol P450
same,Turnover number of formation of 2´-hydroxyflavanone,wild-type CYP2A6,0.32 min⁻¹
same,Formation of flavone and hydroxylated products: 2´-OHFva,CYP2A13,0.027 ± 0.002 nmol/min/nmol P450
same,Formation of flavone and hydroxylated products: 3´-OHFva,CYP2A13,0.011 ± 0.004 nmol/min/nmol P450
same,Formation of flavone and hydroxylated products: 4’´-OHFva,CYP2A13,0.013 ± 0.001 nmol/min/nmol P450
same,Formation of flavone and hydroxylated products: 6OHF,CYP2A13,0.004 ± 0.001 nmol/min/nmol P450
same,Formation of flavone and hydroxylated products: 6OHFva,CYP2A13,0.17 ± 0.01 nmol/min/nmol P450
same,Formation of flavone and hydroxylated products: 7OHF,CYP2A13,<0.001 nmol/min/nmol P450
same,Formation of flavone and hydroxylated products: 7OHFva,CYP2A13,0.005 ± 0.001 nmol/min/nmol P450
same,Formation of flavone and hydroxylated products: Flavone,CYP2A13,0.29 ± 0.02 nmol/min/nmol P450
same,Turnover rate of flavone formation,CYP2A13,0.29 min⁻¹
same,Formation of flavone and hydroxylated products: 2´-OHFva,CYP1B1,0.046 ± 0.009 nmol/min/nmol P450
same,Formation of flavone and hydroxylated products: 3´-OHFva,CYP1B1,0.013 ± 0.002 nmol/min/nmol P450
same,Formation of flavone and hydroxylated products: 4’´-OHFva,CYP1B1,0.19 ± 0.04 nmol/min/nmol P450
same,Formation of flavone and hydroxylated products: 6OHF,CYP1B1,0.002 ± 0.001 nmol/min/nmol P450
same,Formation of flavone and hydroxylated products: 6OHFva,CYP1B1,0.33 ± 0.05 nmol/min/nmol P450
same,Formation of flavone and hydroxylated products: 7OHF,CYP1B1,<0.001 nmol/min/nmol P450
same,Formation of flavone and hydroxylated products: 7OHFva,CYP1B1,0.003 ± 0.001 nmol/min/nmol P450
same,Formation of flavone and hydroxylated products: Flavone,CYP1B1,0.046 ± 0.002 nmol/min/nmol P450
same,Formation of flavone and hydroxylated products: 2´-OHFva,CYP2A6; CYP2A6,4.76 ± 0.32 nmol/min/nmol P450
same,Formation of flavone and hydroxylated products: 3´-OHFva,CYP2A6; CYP2A6,0.031 ± 0.003 nmol/min/nmol P450
same,Formation of flavone and hydroxylated products: 4’´-OHFva,CYP2A6; CYP2A6,0.20 ± 0.01 nmol/min/nmol P450
same,Formation of flavone and hydroxylated products: 6OHF,CYP2A6; CYP2A6,0.003 ± 0.001 nmol/min/nmol P450
same,Formation of flavone and hydroxylated products: 6OHFva,CYP2A6; CYP2A6,1.29 ± 0.08 nmol/min/nmol P450
same,Formation of flavone and hydroxylated products: 7OHF,CYP2A6; CYP2A6,<0.001 nmol/min/nmol P450
same,Formation of flavone and hydroxylated products: 7OHFva,CYP2A6; CYP2A6,<0.001 nmol/min/nmol P450
same,Formation of flavone and hydroxylated products: Flavone,CYP2A6; CYP2A6,0.72 ± 0.06 nmol/min/nmol P450
same,Turnover number of 2´OHFva formation,CYP2A6; CYP2A6,4.8 nmol/min/nmol CYP2A6
same,Turnover number of 6OHFva formation,CYP2A6; CYP2A6,1.3 nmol/min/nmol CYP2A6
same,Turnover number of flavone formation,CYP2A6; CYP2A6,0.72 nmol/min/nmol CYP2A6
same,Turnover rate of 2´-hydroxyflavanone formation,CYP2A6; CYP2A6,4.8 min⁻¹ and 4.76 min⁻¹
same,Turnover rate of 6-hydroxyflavanone formation,CYP2A6; CYP2A6,1.3 min⁻¹ and 1.29 min⁻¹
same,Turnover rate of flavone formation,CYP2A6; CYP2A6,0.72 min⁻¹
same,Flavone formation turnover rate by CYP2A6 relative to CYP2A13,CYP2A6; CYP2A6 higher than CYP2A13,~ 3 fold
same,Kinetic deuterium isotope effect for conversion of flavanone to flavone,rat liver microsomes,1.5
